The subject of series [1] is Meloidogyne incognita. Nature of the series: Nematocidal activity against Meloidogyne incognita (root-knot nematode) assessed as mortality after 24 hr. It is filed as functional.
Series [2] deals with Meloidogyne incognita. Briefly: Nematocidal activity against Meloidogyne incognita (root-knot nematode) assessed as mortality at 100 ug/ml after 24 hr. The series is classed as functional.
In series [3] the test system is Aphelenchoides besseyi. Briefly: Nematocidal activity against Aphelenchoides besseyi assessed as mortality after 24 hr. It is filed as functional.
The subject of series [4] is Aphelenchoides besseyi. Nature of the series: Nematocidal activity against Aphelenchoides besseyi assessed as mortality at 200 ug/ml after 24 hr. It is filed as functional.
A short description of series [5]: Toxicity in Rattus norvegicus (rat). It is filed as organism-based. The conditions noted are these: in vivo, read-out: LC50 (the source's name).

The text below walks through data of ChEMBL document CHEMBL3044786, “Synthesis and nematocidal activity of ascaridole derivatives against Meloidogyne incognita and Aphelenchoides besseyi” (J Pestic Sci, 2007).

Usually LC50 stands for the concentration lethal to half of the exposed cells or organisms. One may read the mortality as the percentage killed.

Values after ≈ are worked out from the molar mass of the structure shown. Where only a bound is given, the exact number is not on record here.

In the case of `CC1=C[C@H]2OO[C@@H]1C[C@@H]2C(C)C`, the median lethal concentration (LC50) came to 25 µg/mL (≈ 149 µM) with Meloidogyne incognita [1] and 69 µg/mL (≈ 410 µM) in the series on Aphelenchoides besseyi [3]. The mortality at 100 µg/mL with Meloidogyne incognita [2] was 100%.
As to `CC1=C[C@@H]2OO[C@H]1C[C@@H]2C(C)C`, the LC50 was 51 µg/mL (≈ 303 µM) in the series with Meloidogyne incognita [1] and 110 µg/mL (≈ 654 µM) with Aphelenchoides besseyi [3]. Moreover, the mortality at 100 µg/mL with Meloidogyne incognita [2] worked out at 100%.
On to `C=C(C)[C@H]1C[C@H]2OO[C@@H]1C=C2C`, for which the LC50 with Meloidogyne incognita [1] turned out to be 12 µg/mL (≈ 72.2 µM); in the series on Aphelenchoides besseyi [3], 21 µg/mL (≈ 126 µM). Also, the mortality at 100 µg/mL in the series with Meloidogyne incognita [2] was found to be 100%.
As for `C=C(C)[C@H]1C[C@@H]2OO[C@H]1C=C2C`, the values for the LC50 in the series with Meloidogyne incognita [1] and with Aphelenchoides besseyi [3] were 23 µg/mL (≈ 138 µM) and 50 µg/mL (≈ 301 µM), respectively. Moreover, the mortality at 100 µg/mL in the series with Meloidogyne incognita [2] came out at 100%.
Turning to `C=C(C)[C@H]1C[C@H]2OO[C@@H]1C(OC(C)=O)=C2C`, in the series on Aphelenchoides besseyi [4], the mortality at 200 µg/mL is under 50%. The LC50 in the series on Meloidogyne incognita [1] amounted to 50 µg/mL (≈ 223 µM); in the series with Aphelenchoides besseyi [3] it was 302 µg/mL (≈ 1350 µM). The mortality at 100 µg/mL in the series on Meloidogyne incognita [2] came to 100%.
As to `C=C(C)[C@H]1C[C@@H]2OO[C@H]1C(OC(C)=O)=C2C`, the median lethal concentration (LC50) in the series with Meloidogyne incognita [1] stood at 51 µg/mL (≈ 227 µM); in the series on Aphelenchoides besseyi [3], 306 µg/mL (≈ 1360 µM). Also, the mortality at 100 µg/mL in the series with Meloidogyne incognita [2] is 100%.
Consider `CC(C)C12C=CC(C(=O)O)(CC1)OO2` (stereo not drawn), for which the mortality at 200 µg/mL in the series with Aphelenchoides besseyi [4] was found to be 100%. Also, the median lethal concentration (LC50) with Meloidogyne incognita [1] turned out to be 2 µg/mL (≈ 10.1 µM); with Aphelenchoides besseyi [3], 4 µg/mL (≈ 20.2 µM). Besides, the mortality at 100 µg/mL in the series with Meloidogyne incognita [2] turned out to be 100%.
Take `CC(C)C12C=CC(CO)(CC1)OO2` (stereo not drawn): the mortality at 200 µg/mL in the series on Aphelenchoides besseyi [4] is under 50%. Moreover, the LC50 is 55 µg/mL (≈ 299 µM) in the series on Meloidogyne incognita [1] and 402 µg/mL (≈ 2180 µM) in the series on Aphelenchoides besseyi [3]. Further, in the series on Meloidogyne incognita [2], the mortality at 100 µg/mL came out at 100%.
Turning to `COC(=O)C12C=CC(C(C)C)(CC1)OO2` (stereo not drawn), the mortality at 200 µg/mL in the series on Aphelenchoides besseyi [4] was determined as 100%. Besides, the 50% lethal concentration (LC50) in the series on Meloidogyne incognita [1] and with Aphelenchoides besseyi [3] was 2 µg/mL (≈ 9.42 µM) throughout. Also, the mortality at 100 µg/mL with Meloidogyne incognita [2] is 100%.
`CC(C)C12C=CC(C)(CC1)OO2` (stereo not drawn) [ASCARIDOLE]: the mortality at 200 µg/mL with Aphelenchoides besseyi [4] is under 50%. Further, the LC50 in the series with Meloidogyne incognita [1] was found to be 52 µg/mL (≈ 309 µM); in the series on Aphelenchoides besseyi [3], 365 µg/mL (≈ 2170 µM). For the same compound, in the series with Meloidogyne incognita [2], the mortality at 100 µg/mL came out at 100%.
In the case of `CNC(=O)O/N=C(\SC)C(=O)N(C)C` [OXAMYL], the median lethal concentration (LC50) came to 0.07 µg/mL (≈ 0.319 µM) with Meloidogyne incognita [1] and 0.1 µg/mL (≈ 0.456 µM) with Aphelenchoides besseyi [3]. Further, the LD50 in series [5] was determined as 3.1 mg/kg.
